# Test results as given in patent US20050240034A1, “Artemisinin-based peroxide compounds as broad spectrum anti-infective agents” (priority 2002, published 2005).
# Where two headings read alike, the source gives them in different places.
# What was measured:
# [1] = tested on: P. falciparum D6 (Sierra Leone); assay: antimalarial parasite LDH (pLDH) assay, D6; assay type: cell-based, Plasmodium falciparum; details: pLDH assay, Table 5; read-out: P. falciparum (D6 Clone) IC50
# Description: (§1) The Thad Cochran National Center for Natural Products Research (University of Mississippi) in vitro antimalarial screen was conducted using an enzyme assay for detection of P. falciparum (see procedure below). This assay is based on the observation that lactate dehydrogenase (LDH) of P. falciparum is distinguishable from host LDH activity. P. falciparum LDH rapidly uses 3-acetyl pyridine nicotinamide adenine dinucleotide (APAD) as a coenzyme in the biotransformation of […].^38 The same process is carried out in human red blood cells at a very slow rate.
# (§2) The “Antimalarial parasite LDH assay” is currently being conducted according the following procedure: prepare a suspension of RBC with a 2% parasitemia and 2% hematocrit in malaria complete medium. Dispense 200 μl aliquots of this suspension into each well of a 96 well microtiter plate. Add 10 μl volumes of the drugs to be tested in duplicate to the appropriate wells. Place the plates into humidified chamber and flush the cultures with a gas mixture consisting of 90% N2, 5% O2, and 5% CO2. Transfer the chamber containing the plates to an incubator, and incubate for 48 hours at 37° C. After 48 hours add 100 μl aliquots of the Malstat™ reagent to each well of a new 96-well microtiter plate Resuspend the cultures from the assay plate by mixing each well up and down several times. Remove 20 μl from each well of the resuspend culture and add to the plate containing the Malstat™ reagent. Incubate the plates at room temperature for 30 minutes. After 30 minutes, add to each well 20 μl of the 1:1 mixture of the NBT/PES solution (2 mg/ml and 0.1 mg/ml, respectively). Incubate the plates in the dark for 1 hour. Add 100 μl of 5% acetic acid solution to stop the reaction. The plate is then read at an endpoint of approximately 650 nm. The dose response curves are generated using Microsoft Excel.
# (§3) Antimalarial activity of the analogues was determined in vitro on chloroquine sensitive (D)6, Sierra Leone) and resistant (W2, IndoChina) strains of Plasmodium falciparum. The 96 well microplate assay is based on evaluation of the effect of the compounds on the growth of asynchronous cultures of P. falciparum, determined by the assay of parasite lactate dehydrogenase (pLDH) activity.^28 The appropriate dilutions of the compounds were prepared in DMSO or RPMI-1640 medium and added to the cultures of P. falciparum (2% hematocrit, 2% parasitemia) set up in clear flat bottomed 96 well plates. The plates were placed into the humidified chamber and flushed with a gas mixture of 90% N2, 5% CO2 & 5% O2. The cultures were incubated at 37° C. for 48 hours. Growth of the parasite in each well was determined by pLDH assay using Malstat® reagent. The medium and RBC controls were also set-up in each plate. The standard antimalarial agents, chloroquine and artemisinin, were used as the positive controls while DMSO was tested as the negative control.
# [2] = tested on: P. falciparum W2 (IndoChina); assay: antimalarial parasite LDH (pLDH) assay, W2; assay type: cell-based, Plasmodium falciparum; details: pLDH assay, Table 5; read-out: P. falciparum (W2 Clone) IC50
# Description: as §1, §2
# as §3, with “plate.” for “plate. The standard antimalarial agents, chloroquine and artemisinin, were used as the positive controls while DMSO was tested as the negative control.”
# [3] = tested on: Leishmania donovani promastigotes expressing firefly luciferase; assay: antileishmanial luciferase assay on transgenic promastigotes; assay type: cell-based
# Description: Antileishmanial activity of the compounds was tested on a transgenic cell line of Leishmania donovani promastigotes expressing firefly luciferase.^29a In a 96 well microplate assay, compounds with appropriate dilution were added to the leishmania promastigotes culture (2×10^6 cell/mL). The plates were incubated at 26° C. for 72 hours and growth of leishmania promastigotes was determined by luciferase assay with Steady Glo® reagent (Promega, USA). Pentamidine and Amphotericin B were used as standard antileishmanial agents. The analogues were simultaneously tested for cytotoxicity on VERO cells (monkey kidney fibroblast) by Neutral Red assay.^29b IC50 values for the compounds were computed from the growth inhibition curve.
# P. berghei N = assay: in vivo Peter's 4-day antimalarial test in mice, P. berghei N
# Description: (§4) The parasitemia is determined on the day following the last treatment—day 4 to determine qualitatively the presence and degree of activity at the screening dose.
# P. yoelli ssp. NS = assay: in vivo 4-day antimalarial test in mice, P. yoelli ssp. NS
# Description: as §4
# [4] = Table 1 (artemisinin analogues), NA = not active up to 125 μg/ml, read-out: Antileishmanial activity IC50
# [5] = Table 3 (continues Table 1), read-out: Antileishmanial activity IC50
# [6] = Table 4, NA = not active up to 125 μg/ml, read-out: IC50
# [7] = mice, oral, 4-day test, unit not given
# [8] = mice, subcutaneous, 4-day test, unit not given
molecule,measurement,setting,value
"(+)-Octahydro-3,6α-dimethyl-3,12-epoxy-9β-(3′-(trifluoromethyl)propyl)-12H-pyrano[4,3j]-1,2-benzodioxepin-10(3H)-one [Compound 28]",IC50,[1],0.0439 µM
same,IC50,[2],0.0508 µM
same,IC50,[3]; [4],1.4 µM
"N=C(N)c1ccc(OCCCCCOc2ccc(C(=N)N)cc2)cc1 [Pentamidine, reference compound]",IC50,"[3]; Leishmania donovani, read-out: Antileishmanial activity IC50",1.35 µM
CC1CCC2C(C)COC3OC4(C)CCC1C32OO4 (stereo not shown) [Compound 94],IC50,[3]; [5],46.6 µM
"(+)-Octabydro-3,6α-dimethyl-3,12-epoxy-9β-(3′-(m-fluorophenyl)propyl)-12H-pyrano[4,3j]-1,2-benzodioxepin-10(3H)-one [Compound 30]",IC50,[1],0.0301 µM
same,IC50,[2],0.02 µM
same,IC50,[3]; [4],53.8 µM
CC1CCC2C(CCCc3cccc(F)c3)C(=O)OC3OC4(C)CCC1C32OO4 (stereo not shown) [Compound 71],IC50,[3]; [4],3.7 µM
CC1CCC2C(CCCc3ccc(Cl)c(Cl)c3)COC3OC4(C)CCC1C32OO4 (stereo not shown) [Compound 97],IC50,[3]; [5],2.3 µM
CC1CCC2CC(=O)OC3OC4(C)CCC1C23OO4 (stereo not shown) [Compound 60],IC50,[3]; [4],242 µM
CC1CCC2C(CCCc3ccccc3)C(=O)OC3OC4(C)CCC1C32OO4 (stereo not shown) [Compound 26],IC50,[1],0.0047 µM
same,IC50,[2],0.0013 µM
same,IC50,[3]; [4],11.6 µM
CCCCC1C(=O)OC2OC3(C)CCC4C(C)CCC1C24OO3 (stereo not shown) [Compound 65],IC50,[3]; [4],12.3 µM
CCCC1C(=O)OC2OC3(C)CCC4C(C)CCC1C24OO3 (stereo not shown) [Compound 63],IC50,[3]; [4],16.8 µM
CC1CCC2CC(=O)N(CCc3ccccc3)C3OC4(C)CCC1C23OO4 (stereo not shown) [Compound 110],IC50,[3]; [6],32.3 µM
CC1CCC2C(CCCc3ccc(C(F)(F)F)cc3)COC3OC4(C)CCC1C32OO4 (stereo not shown) [Compound 98],IC50,[3]; [5],1.8 µM
CC1CCC2CC(=O)N(CC(=O)OC(C)(C)C)C3OC4(C)CCC1C23OO4 (stereo not shown) [Compound 107],IC50,[3]; [6],27.5 µM
CC1CCC2C(CCCc3cccc(Cl)c3)COC3OC4(C)CCC1C32OO4 (stereo not shown) [Compound 96],IC50,[3]; [5],3.7 µM
CC1CCC2C(CCCc3ccc(Cl)cc3)COC3OC4(C)CCC1C32OO4 (stereo not shown) [Compound 95],IC50,[3]; [5],4.9 µM
"CC1CCC2C(CCCc3ccc(O)cc3)C(=O)OC3OC4(C)CCC1C32OO4 (single isomer, unassigned; (+)) [Compound 33]",IC50,[1],0.0079 µM
same,IC50,[2],0.0047 µM
same,IC50,[3]; [4],44.7 µM
C[C@@H]1CC[C@@H]([C@@H](C)CO)[C@@]23C=C[C@@](C)(CC[C@@H]12)OO3 [Compound 112],IC50,[3]; Leishmania donovani,131 µM
"C[C@H]1[C@H](OC(=O)CCC(=O)[O-])O[C@@H]2O[C@@]3(C)CC[C@H]4[C@H](C)CC[C@@H]1[C@@]24OO3.[Na+] [Sodium artesunate, sodium artesunate, reference compound]",P. berghei N P.O. ED50,P. berghei N; [7],2.4
same,P. berghei N P.O. ED90,P. berghei N; [7],13.0
same,P. berghei N S.C. ED50,P. berghei N; [8],1.5
same,P. berghei N S.C. ED90,P. berghei N; [8],6.3
same,% Suppression,"P. berghei N; strain N, route PO",77.2%
same,ED50,"P. berghei N; strain N, route PO",<10 mg/kg × 4
same,ED90,"P. berghei N; strain N, route PO",>10 mg/kg × 4
same,% Suppression,"P. yoelli ssp. NS; strain NS, route PO",56.5%
same,ED50,"P. yoelli ssp. NS; strain NS, route PO",<10 mg/kg × 4
same,ED90,"P. yoelli ssp. NS; strain NS, route PO",>10 mg/kg × 4
same,P. yoelli ssp. NS (S.C.) ED50,"P. yoelli ssp. NS; subcutaneous, unit inferred",5.3 mg/kg
same,P. yoelli ssp. NS (S.C.) ED90,"P. yoelli ssp. NS; subcutaneous, unit inferred",23.3 mg/kg
CCCCN1C(=O)CC2CCC(C)C3CCC4(C)OOC23C1O4 (stereo not shown) [Compound 105],IC50,[3]; [6],44.5 µM
CC1CCC2C(CCC#N)C(=O)OC3OC4(C)CCC1C32OO4 (stereo not shown) [Compound 52],IC50,[1],0.0149 µM
same,IC50,[2],0.0149 µM
same,IC50,[3]; [4],38.9 µM
COc1ccc(CCCC2C(=O)OC3OC4(C)CCC5C(C)CCC2C35OO4)cc1 (stereo not shown) [Compound 73],IC50,[3]; [4],12 µM
CC1CCC2C(CCCc3ccc(N(C)C)cc3)COC3OC4(C)CCC1C32OO4 (stereo not shown) [Compound 43a],IC50,[1],0.0165 µM
same,IC50,[2],0.0143 µM
same,IC50,[3]; [5],36 µM
CC1CCC2C(CCCc3cc(F)cc(F)c3)C(=O)OC3OC4(C)CCC1C32OO4 (stereo not shown) [Compound 74],IC50,[3]; [4],49.7 µM
CC1CCC2C(CCCc3cc(C(F)(F)F)cc(C(F)(F)F)c3)COC3OC4(C)CCC1C32OO4 (stereo not shown) [Compound 101],IC50,[3]; [5],0.3 µM
COc1ccc(CCCC2COC3OC4(C)CCC5C(C)CCC2C35OO4)cc1 (stereo not shown) [Compound 99],IC50,[3]; [5],17.4 µM
CC1CCC2C(C)(C)C(=O)OC3OC4(C)CCC1C32OO4 (stereo not shown) [Compound 62],IC50,[3]; [4],101 µM
"C[C@@H]1CC[C@H]2[C@@H](C)C(=O)O[C@@H]3O[C@@]4(C)CC[C@@H]1[C@]32OO4 [Artemisinin, artemisinin]",IC50,[1],0.017 µM
same,IC50,[3]; [4],124 µM
CC1CCC2CC(=O)N(Cc3ccc(Cl)cc3)C3OC4(C)CCC1C23OO4 (stereo not shown) [Compound 109],IC50,[3]; [6],25.5 µM
"C[C@@H]1[C@H](O)[C@@H](C)/C=C/C=C/C=C/C=C/C=C/C=C/C=C/[C@H](O[C@@H]2O[C@H](C)[C@@H](O)[C@H](N)[C@@H]2O)C[C@@H]2O[C@](O)(C[C@@H](O)C[C@@H](O)[C@H](O)CC[C@@H](O)C[C@@H](O)CC(=O)O[C@H]1C)C[C@H](O)[C@H]2C(=O)O [Amphotericin B, reference compound]",IC50,[3]; [5],0.01 µM
CC1CCC2C(CCCc3ccccc3)C(=O)OC3OC4(C)CCC1C32OO4 (stereo not shown) [Compound 27],IC50,[1],0.0104 µM
same,IC50,[2],0.0034 µM
same,IC50,[3]; [4],45.3 µM
CC1CCC2CC(=O)N(Cc3ccccc3)C3OC4(C)CCC1C23OO4 (stereo not shown) [Compound 108],IC50,[3]; [6],56 µM
CC1CCC2C(CCCc3cc(F)cc(F)c3)COC3OC4(C)CCC1C32OO4 (stereo not shown) [Compound 100],IC50,[3]; [5],11 µM
CC1CCC2C(CCCCc3ccccc3)C(=O)OC3OC4(C)CCC1C32OO4 (stereo not shown) [Compound 70],IC50,[3]; [4],7.5 µM
C=CCC1C(=O)OC2OC3(C)CCC4C(C)CCC1C24OO3 (stereo not shown) [Compound 64],IC50,[3]; [4],17.8 µM
CC1CCC2C(CCCc3ccc(Cl)cc3)C(=O)OC3OC4(C)CCC1C32OO4 (stereo not shown) [Compound 72],IC50,[3]; [4],11.9 µM
"(+)-Octahydro3,6α-dimethyl-3,12-epoxy-9β-(3′-(3,5-difluorophenyl)propyl)-12H-pyrano[4,3j)-1,2-benzodioxepin-10(3H)-one [Compound 34]",IC50,[1],0.0188 µM
same,IC50,[2],0.016 µM
same,IC50,[3]; [4],14.4 µM
